Legend:
Experiment in all cases: Time-kill determination
Assay type in all cases: cell-based
[1] = system: Pseudomonas aeruginosa (ATCC 15442)
Experimental: (§1) The assessment of efficacy of 9-decenoic acid against a spectrum of microorganisms was determined using the American Society for Testing and Materials (ASTM) procedure entitled “Standard Test Method for the Assessment of Microbiocidal Activity of Test Materials Using a Time-Kill Procedure,” October 1998. This procedure incorporates the recommendations described in the “Manual of Clinical Microbiology,” 5th ed., edited by A. B. Balows et al., ASM, Washington, and is directed by the Federal Register, June 1994.
(§2) Challenge organisms were prepared as follows. Cultures of the following organisms were obtained: Staphylococcus aureus (ATCC 6538), Pseudomonas aeruginosa (ATCC 15442), Staphylococcus epidermidis (ATCC 12228), Klebsiella pneumoniae (ATCC 4352), Escherichia coli 0157:H7 (ATCC 43895) and Candida albicans (ATCC 10231). The stock cultures were transferred to sterile tubes and sterile tryptic soy broth (TSB) was added to the cultures. The mixture was incubated for 18-24 hours at 37° C. (±2° C.). A portion of this culture was then transferred onto TSA plates and incubated for 18-24 hours at 37° C. (±2° C.). The plates were removed from incubation and the bacterial growth was washed from the agar surface using Butterfield's Phosphate Buffered Dilution Water (PBDW).
(§3) The bacterial suspension was adjusted to contain approximately 10^8 Colony Forming Units (CFU) per ml with PBDW. The concentration was adjusted to an optical density (OD) of 0.4-0.5 (versus a PBDW blank) at 620 nm in a UV-Vis spectrophotometer, and this optical density gave approximately 10^8 colony forming units per milliliter (cfu/ml). The standardized suspension was stored under appropriate conditions until it was used as the challenge inoculum.
(§4) Concentrated 9-decenoic acid (97%) was diluted in filter sterilized isopropanol to yield a 25,000 ppm stock solution. Subsequent dilutions to the 9-decenoic acid stock solutions were made with sterile Deionized Water (DI) to achieve concentrations of 0.1%, 0.05%, 0.01% and 0.001%. The pH was determined for each dilution; pH values ranged from 4.4-4.1. Additionally, 9-decenoic acid stock solution was adjusted to pH 7 with 1 N NaOH and serially diluted with sterile DI to achieve concentrations of 1%, 0.5%, 0.2%, 0.1%, 0.05% and 0.0025%. In addition, 9-decenoic acid stock solution was combined with Triclosan™ (obtained from Ciba Specialty Chemical Corporation, under the tradename Irgasan DP 300™) in various ratios, as indicated in Table 8. The pH of the combined solution was 7.
(§5) Compliant with the ASTM procedure cited, for each challenge microorganism a 9.9 ml aliquot of the prepared 9-decenoic acid suspension was added to a sterile tube. A 0.1 ml aliquot of the standardized inoculum was added to the 9-decenoic acid solution representing the start of the test exposure. The inoculated 9-decenoic acid solution was immediately mixed thoroughly. The inoculated suspension was held at room temperature for 0.5, 2, 5, 7 and 10-minute exposure times for tests run at pH level of approximately 4. The pH 7 tests were held at room temperature for 0.5 and 2 minutes.
(§6) At each exposure sample time, a 1.0 ml aliquot of the inoculated 9-decenoic acid suspension was transferred to 9.0 ml of D/E Neutralizing Broth. Additional ten-fold serial dilutions were made in PBDW and plated in duplicate on TSA. All plates were incubated for 48 hours at 37° C. (±2° C.) and visually examined for growth. The plates were enumerated, recorded and log kill determined for each time point.
(§7) The following study controls were conducted: culture purity, neutralizer sterility, initial suspension population, test population, neutralization verification and a negative control using isopropanol. Culture purity was verified by performing a streak plate for isolated colonies of each culture used. All cultures were determined to be pure based on consistent colony morphology typical for the test organism. The neutralizer sterility was confirmed by no growth in an incubated sample. […]

[2] = system: Klebsiella pneumoniae (ATCC 4352)
Experimental: as §1, §2, §3, §4, §5, §6, §7

[3] = system: Candida albicans (ATCC 10231)
Experimental: as §1, §2, §3, §4, §5, §6, §7

[4] = 0.01% 9-decenoic acid, pH 4.4, exposure 0.5 min
[5] = 0.01% 9-decenoic acid, pH 4.4, exposure 2 min
[6] = 0.01% 9-decenoic acid, pH 4.4, exposure 5 min
[7] = 0.01% 9-decenoic acid, pH 4.4, exposure 7 min
[8] = 0.01% 9-decenoic acid, pH 4.4, exposure 10 min
[9] = 0.05% 9-decenoic acid, pH 4.1, exposure 0.5 min
[10] = 0.05% 9-decenoic acid, pH 4.1, exposure 2 min
[11] = 0.05% 9-decenoic acid, pH 4.1, exposure 5 min
[12] = 0.05% 9-decenoic acid, pH 4.1, exposure 7 min
[13] = 0.05% 9-decenoic acid, pH 4.1, exposure 10 min
[14] = 0.1% 9-decenoic acid, pH 4.1, exposure 0.5 min
[15] = 0.1% 9-decenoic acid, pH 4.1, exposure 2 min
[16] = 0.1% 9-decenoic acid, pH 4.1, exposure 5 min
[17] = 0.1% 9-decenoic acid, pH 4.1, exposure 7 min
[18] = 0.1% 9-decenoic acid, pH 4.1, exposure 10 min

`C=CCCCCCCCC(=O)O` [9-decenoic acid] showed a Log reduction [1, 4] of over 6.1 log, a Log reduction [1, 5] of over 6.1 log and a Log reduction [1, 6] of over 6.1 log. It also gave a Log reduction [1, 7] of over 6.1 log, a Log reduction [1, 8] of over 6.1 log and a Log reduction [1, 9] of over 6.1 log. It also gave a Log reduction [1, 10] of over 6.1 log, a Log reduction [1, 11] of over 6.1 log and a Log reduction [1, 12] of over 6.1 log. For the same compound, the Log reduction [1, 13] was over 6.1 log, the Log reduction [1, 14] was over 6.1 log and the Log reduction [1, 15] was over 6.1 log. It also gave a Log reduction [1, 16] of over 6.1 log, a Log reduction [1, 17] of over 6.1 log and a Log reduction [1, 18] of over 6.1 log. The Log reduction [2, 4] was 1.4 log, the Log reduction [2, 5] was over 6.3 log and the Log reduction [2, 6] was over 6.3 log. The Log reduction [2, 7] was over 6.3 log, the Log reduction [2, 8] was over 6.3 log and the Log reduction [2, 9] was over 6.3 log. The Log reduction [2, 10] was over 6.3 log, the Log reduction [2, 11] was over 6.3 log and the Log reduction [2, 12] was over 6.3 log. The Log reduction [2, 13] was over 6.3 log, the Log reduction [2, 14] was over 6.3 log and the Log reduction [2, 15] was over 6.3 log. The Log reduction [2, 16] was over 6.3 log, the Log reduction [2, 17] was over 6.3 log and the Log reduction [2, 18] was over 6.3 log. For the same compound, the Log reduction [3, 4] was 1.0 log, the Log reduction [3, 5] was 2.9 log and the Log reduction [3, 6] was over 6.7 log. It also gave a Log reduction [3, 7] of over 6.7 log, a Log reduction [3, 8] of over 6.7 log and a Log reduction [3, 9] of over 6.7 log. The Log reduction [3, 10] was over 6.7 log, the Log reduction [3, 11] was over 6.7 log and the Log reduction [3, 12] was over 6.7 log. For the same compound, the Log reduction [3, 13] was over 6.7 log, the Log reduction [3, 14] was over 6.7 log and the Log reduction [3, 15] was over 6.7 log. It also gave a Log reduction [3, 16] of over 6.7 log, a Log reduction [3, 17] of over 6.7 log and a Log reduction [3, 18] of over 6.7 log.
